Measured values published in the NIST ThermoML archive (doi:10.1016/j.jct.2013.05.022).
± gives the expanded uncertainty stated by the source.

Assay: Boiling temperature at pressure P
Conditions: Liquid, Ebulliometric method (Recirculating still)

| Boiling temperature at pressure P (13.33 kPa) | Boiling temperature at pressure P (20 kPa) | Boiling temperature at pressure P (26.66 kPa) | Boiling temperature at pressure P (33.33 kPa) | Boiling temperature at pressure P (40 kPa) | Boiling temperature at pressure P (53.33 kPa) | Boiling temperature at pressure P (66.66 kPa) | Boiling temperature at pressure P (79.99 kPa) | Boiling temperature at pressure P (93.33 kPa) | Boiling temperature at pressure P (98.12 kPa) | Boiling temperature at pressure P (101.33 kPa) | SMILES |
| --- | --- | --- | --- | --- | --- | --- | --- | --- | --- | --- | --- |
| 133.2 ± 0.9 °C | 143.7 ± 0.9 °C | 152.1 ± 0.9 °C | 159 ± 0.8 °C | 164.7 ± 0.8 °C | 174.1 ± 0.8 °C | 182 ± 0.8 °C | 188.5 ± 0.8 °C |  |  |  | C=CC(C)(O)CCC=C(C)C (centres undefined) [3,7-dimethyl-1,6-octadien-3-ol] |
| 35.7 ± 0.9 °C | 43.1 ± 0.8 °C | 48.5 ± 0.8 °C | 53 ± 0.8 °C | 57 ± 0.8 °C | 63.1 ± 0.8 °C | 68.2 ± 0.8 °C | 72.5 ± 0.8 °C | 76.2 ± 0.8 °C | 77.7 ± 0.8 °C | 78.2 ± 0.8 °C | CCO [ethanol] |
